In patent US20200261584A1, “STABILIZED PROTEIN GEL PREPARATION” (TERUMO KABUSHIKI KAISHA, priority 2013, published 2020):

Assay: Oxidative stress, Example 29 (α-hANP, hydrogen peroxide, HPLC)
Format: physicochemical
Conditions: 0.1 mg/mL, solution E pH 4.8, 0.2% hydrogen peroxide, 37° C., one hour
Method: A gel preparation 29-48 of formulation 48 containing 0.1 mg/mL of α-hANP was prepared in an amount of 500 μL in a microtube, in the same manner as in the preparing method in (1) of Example 2, while using a solution E (pH 4.8) containing 37.5 mg/mL of D-mannitol and 5 mg/mL of glycine, in place of the solution A. Then, 50 μL of 0.2% hydrogen peroxide was added to the gel preparation, followed by incubation at 37° C. for one hour. Immediately after the incubation, 200 μL of 0.4 M methionine and 250 μL of water were added to the sample, and the gel preparation was disintegrated by a microspatula. The sample was then centrifuged, the supernatant was filtered through a membrane filter to remove aggregates, and the amount of α-hANP contained in the solution was determined by the HPLC method. Note that this experiment was conducted with N=2, and the remaining rate of α-hANP was expressed based on the starting amount. Besides, as a control, an α-hANP solution prepared by dissolving α-hANP in the solution E so as to obtain a concentration of 0.1 mg/mL was subjected to the same process as above, exclusive of the disintegrating operation by the microspatula.

- Remaining rate of α-hANP after loaded with oxidative stress, run 1: 65.4%
- Remaining rate of α-hANP after loaded with oxidative stress, run 2: 64.7%
Structure (SMILES): CC[C@H](C)[C@@H]1NC(=O)[C@H](CCCNC(=N)N)NC(=O)[C@H](CC(=O)O)NC(=O)[C@H](CCSC)NC(=O)[C@H](CCCNC(=N)N)NC(=O)CNC(=O)CNC(=O)[C@H](Cc2ccccc2)NC(=O)[C@@H](NC(=O)[C@H](CO)NC(=O)[C@H](CO)NC(=O)[C@H](CCCNC(=N)N)NC(=O)[C@H](CCCNC(=N)N)NC(=O)[C@H](CC(C)C)NC(=O)[C@@H](N)CO)CSSC[C@@H](C(=O)N[C@@H](CC(N)=O)C(=O)N[C@@H](CO)C(=O)N[C@@H](Cc2ccccc2)C(=O)N[C@@H](CCCNC(=N)N)C(=O)N[C@@H](Cc2ccc(O)cc2)C(=O)O)NC(=O)CNC(=O)[C@H](CC(C)C)NC(=O)CNC(=O)[C@H](CO)NC(=O)[C@H](CCC(N)=O)NC(=O)[C@H](C)NC(=O)CNC1=O [α-hANP solution, α-human atrial natriuretic polypeptide]
